Data published in US10344032B2, “Agents for treating neurogenic inflammation and neuropathic hyperalgesia related disorders” (PÉCSI TUDOMÁNYEGYETEM, priority 2014, dated 2019).

Tests used:
rat [1] = assay: Mustard oil-induced acute neurogenic inflammation in the paw skin of the rat (Evans blue leakage); type: in vivo; conditions: 100 μg/kg p.o. 60 min before 1% mustard oil; vs vehicle-treated control; listed as BST-1693
Protocol: Deep anaesthesia was performed with sodium-thiopental (50 mg/kg i.p.). Both hindlegs of the rats were acutely denervated (the sciatic and the saphenous nerves were cut 30 min before the induction of inflammation) to avoid the influence of reflex mechanisms. Inflammation in the dorsal skin of the hindpaws was evoked by topical application of 1% mustard oil dissolved in paraffin oil. This compound selectively activates capsaicin-sensitive peptidergic fibres through the TRPA1 ion channel, therefore induces acute inflammatory reaction with exclusively neurogenic mechanisms via the release of pro-inflammatory sensory neuropeptides, such as substance P and CGRP. Extravasation of plasma albumin was measured by the Evans blue leakage method (see FIG. 2). Evans blue (50 mg/kg) which binds to plasma albumine, was injected i.v. and neurogenic inflammation was induced 5 min later. […] The amount of the accumulated Evans blue, which quantitatively correlates with the intensity of plasma extravasation, was expressed as μg dye/g wet skin (Helyes et at, 1997, 2001, 2006; Borzsei et al., 2008). […]
Extravasation of plasma albumin in the dorsal skin of the hindpaws was measured by the Evans blue leakage method. […] The skin of the hindpaws was removed, their weight was measured and the extravasated dye was extracted with formamide at room temperature during 72 h for photometric determination at 620 nm. […]

rat [2] = assay: Plantar incision-induced heat allodynia (increasing temperature water bath), postoperative pain model; type: in vivo; conditions: 100 μg/kg p.o., measured 60 min later; one day after plantar incision
Protocol: Rats were anaesthesized with sodium-pentobarbital (Euthasol, 40 mg/kg i.p.) and a 1 cm longitudinal incision was made through the skin, fascia and muscle of the plantar aspect of the hindpaw. Significant decrease of both the thermonociceptive and mechanonociceptive thresholds (heat and mechanical allodynia) of the paw develops 1 day after this procedure.
One hundred and forty five (145) female Wistar rats (150-250 g) kept in the Animal House of the University of Pecs in a temperature-controlled room provided with a 12-hour light-dark cycle, standard rat chow and water ad libitum were used in this experimental series. […] Touch sensitivity was measured with a dynamic plantar aesthesiometer (DPA) and the thermonociceptive threshold was determined with an increasing temperature water-bath (ITWB) on the same rats (see below). […] Test compounds were administered p.o. and post-dose touch sensitivity and thermonociceptive thresholds were measured 60 min later. […]
b) The thermonociceptive threshold of the paw was determined with an increasing temperature water bath developed and validated in our laboratories in cooperation with Experimetria Ltd. (Budapest, Hungary). […] The controlling unit has a 30° C. starting temperature, heating rate and a display continuously showing the actual bath temperature measured by a thermocouple at the middle position 35 mm below the water level. […]

sst4 receptor = biological target: T1, sst4 receptor (Homo sapiens, UniProt P31391); assay: Somatostatin sst4 receptor-coupled G-protein activation assay ([35S]GTPγS binding); type: biochemical; conditions: 100 nM concentration; membrane fractions of CHO cells stably expressing the sst4 receptor; percentage over specific binding in absence of agonists
T1 construct: expressed in transfected cells
Text: [^35S]GTPγS binding assay is a functional test determining agonist-induced and receptor-mediated G-protein activation which is based on the increase in guanine nucleotide exchange at G-proteins upon agonist stimulation. The interaction of a G protein-coupled receptor (GPCR) with the G protein is the first step in the transduction of the receptor binding signal to the activation of the second-messenger systems. We measured the level of [^35S]-GTPγS bound to the α subunit of G proteins and determined the efficacy of the compounds. Compounds which elicited 200% [^35S]GTPγS binding in nanomolar concentration were considered effective agonist. The examined compounds were added into the medium in 1 nM, 10 nM, 100 nM 1 μM and 10 μM concentrations.
Membrane fractions were prepared from CHO cells stably expressing the sst4 receptor in Tris-EGTA buffer (50 mM Tris-HCl, 1 mM EGTA, 3 mM MgCl2, 100 mM NaCl, pH 7.4). These membrane fractions (˜10 μg of protein/sample) were incubated at 30° C. for 60 min in the same Tris-EGTA buffer containing [^35S]GTPγS (0.05 nM) and increasing concentrations (10^−9 to 10^−5 M) of test compounds in the presence of 30 μM GDP in a final volume of 500 μl. Non-specific binding was determined in the presence of 10 μM unlabelled GTPγS. Total binding was measured in the absence of test compounds. To calculate the specific binding, non-specific binding was subtracted from total binding. The reaction was terminated by filtrating the samples through Whatman GF/B glass fiber filters. Using 48-well Slot Blot Manifold from Cleaver Scientific filters were washed three times with ice-cold 50 mM Tris-HCl buffer (pH 7.4). After drying for 60 min at 37° C., radioactivity was measured in scintillation liquid in a Packard Tri-Carb 2800 TR scintillation counter. Test compound-induced G-protein stimulation was given as percentage over the specific [^35S]GTPγS binding observed in the absence of agonists.

[3] = Analgesic and anti-inflammatory models shown within the examples; conditions: in vivo

T1 sequence (P31391 whole entry): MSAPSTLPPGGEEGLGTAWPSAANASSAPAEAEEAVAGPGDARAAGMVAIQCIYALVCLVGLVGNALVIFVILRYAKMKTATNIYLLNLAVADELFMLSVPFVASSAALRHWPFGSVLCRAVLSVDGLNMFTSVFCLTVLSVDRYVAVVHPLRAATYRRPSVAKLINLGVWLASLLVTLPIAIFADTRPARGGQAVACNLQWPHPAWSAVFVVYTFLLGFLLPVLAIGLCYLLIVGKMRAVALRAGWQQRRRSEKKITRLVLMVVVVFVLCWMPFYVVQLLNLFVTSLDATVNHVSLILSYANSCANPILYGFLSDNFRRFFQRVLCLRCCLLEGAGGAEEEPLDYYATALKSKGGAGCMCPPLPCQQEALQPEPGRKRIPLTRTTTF

| Compound | inhibition of acute neurogenic inflammatory response (Evans blue accumulation in hindpaw skin) (rat [1]) | melting point | effectiveness in inhibiting the decrease of the heat threshold (rat [2]) | [35S]GTPγS binding (G-protein activation) (sst4 receptor) | activity in the analgesic and anti-inflammatory models [3] |
| --- | --- | --- | --- | --- | --- |
| Cc1c(C)n(Cc2ccccc2)c2ncnc(NCCc3ccc(N)cc3)c12 [Example 1, [2-(4-Amino-phenyl)-ethyl]-(7-benzyl-5,6-dimethyl-7H-pyrrolo[2,3-d]pyrimidin-4-yl)-amine] | 70.4% | 150.7 to 151.8 °C | – | – | – |
| CC(=O)Nc1ccc(CCNc2ncnc3c2c(C)c(C)n3Cc2ccccc2)cc1 [Example 3, N-{4-[2-(7-Benzyl-5,6-dimethyl-7H-pyrrolo[2,3-d]pyrimidin-4-ylamino)-ethyl]-phenyl}-acetamide] | – | 186.9 to 187.7 °C | 18.2% | 210.67% | – |
| COc1ccc(CCNc2ncnc3c2cc(C)n3Cc2ccc(OC)c(OC)c2)cc1OC [compound (a)] | – | – | – | – | totally inactive |
